Test results as given in patent publication US20100099113A1, “MINIMIZED SMALL PEPTIDES WITH HIGH AFFINITY FOR FACTOR VIII AND FACTOR VIII-LIKE PROTEINS” (Technische Universitat Muenchen, priority 2006, published 2010).
Where no end group is shown, it is not given here. [ ]: non-standard residue; d: D form. Bpa = N[C@@H](Cc1ccc(C(=O)c2ccccc2)cc1)C(=O)O; 1Nal = N[C@@H](Cc1cccc2ccccc12)C(=O)O; Bta = N[C@@H](Cc1csc2ccccc12)C(=O)O; NMeY = CN[C@@H](Cc1ccc(O)cc1)C(=O)O; Phg = N[C@H](C(=O)O)c1ccccc1; Abu = CC[C@H](N)C(=O)O

Molecular target: T1, Plasma-derived (pd-) human Factor VIII (Homo sapiens, UniProt P00451)
T1 construct: from tissue; host or cells: human blood plasma (FVIII concentrate)
T1 sequence (P00451 20-1667 limits assumed): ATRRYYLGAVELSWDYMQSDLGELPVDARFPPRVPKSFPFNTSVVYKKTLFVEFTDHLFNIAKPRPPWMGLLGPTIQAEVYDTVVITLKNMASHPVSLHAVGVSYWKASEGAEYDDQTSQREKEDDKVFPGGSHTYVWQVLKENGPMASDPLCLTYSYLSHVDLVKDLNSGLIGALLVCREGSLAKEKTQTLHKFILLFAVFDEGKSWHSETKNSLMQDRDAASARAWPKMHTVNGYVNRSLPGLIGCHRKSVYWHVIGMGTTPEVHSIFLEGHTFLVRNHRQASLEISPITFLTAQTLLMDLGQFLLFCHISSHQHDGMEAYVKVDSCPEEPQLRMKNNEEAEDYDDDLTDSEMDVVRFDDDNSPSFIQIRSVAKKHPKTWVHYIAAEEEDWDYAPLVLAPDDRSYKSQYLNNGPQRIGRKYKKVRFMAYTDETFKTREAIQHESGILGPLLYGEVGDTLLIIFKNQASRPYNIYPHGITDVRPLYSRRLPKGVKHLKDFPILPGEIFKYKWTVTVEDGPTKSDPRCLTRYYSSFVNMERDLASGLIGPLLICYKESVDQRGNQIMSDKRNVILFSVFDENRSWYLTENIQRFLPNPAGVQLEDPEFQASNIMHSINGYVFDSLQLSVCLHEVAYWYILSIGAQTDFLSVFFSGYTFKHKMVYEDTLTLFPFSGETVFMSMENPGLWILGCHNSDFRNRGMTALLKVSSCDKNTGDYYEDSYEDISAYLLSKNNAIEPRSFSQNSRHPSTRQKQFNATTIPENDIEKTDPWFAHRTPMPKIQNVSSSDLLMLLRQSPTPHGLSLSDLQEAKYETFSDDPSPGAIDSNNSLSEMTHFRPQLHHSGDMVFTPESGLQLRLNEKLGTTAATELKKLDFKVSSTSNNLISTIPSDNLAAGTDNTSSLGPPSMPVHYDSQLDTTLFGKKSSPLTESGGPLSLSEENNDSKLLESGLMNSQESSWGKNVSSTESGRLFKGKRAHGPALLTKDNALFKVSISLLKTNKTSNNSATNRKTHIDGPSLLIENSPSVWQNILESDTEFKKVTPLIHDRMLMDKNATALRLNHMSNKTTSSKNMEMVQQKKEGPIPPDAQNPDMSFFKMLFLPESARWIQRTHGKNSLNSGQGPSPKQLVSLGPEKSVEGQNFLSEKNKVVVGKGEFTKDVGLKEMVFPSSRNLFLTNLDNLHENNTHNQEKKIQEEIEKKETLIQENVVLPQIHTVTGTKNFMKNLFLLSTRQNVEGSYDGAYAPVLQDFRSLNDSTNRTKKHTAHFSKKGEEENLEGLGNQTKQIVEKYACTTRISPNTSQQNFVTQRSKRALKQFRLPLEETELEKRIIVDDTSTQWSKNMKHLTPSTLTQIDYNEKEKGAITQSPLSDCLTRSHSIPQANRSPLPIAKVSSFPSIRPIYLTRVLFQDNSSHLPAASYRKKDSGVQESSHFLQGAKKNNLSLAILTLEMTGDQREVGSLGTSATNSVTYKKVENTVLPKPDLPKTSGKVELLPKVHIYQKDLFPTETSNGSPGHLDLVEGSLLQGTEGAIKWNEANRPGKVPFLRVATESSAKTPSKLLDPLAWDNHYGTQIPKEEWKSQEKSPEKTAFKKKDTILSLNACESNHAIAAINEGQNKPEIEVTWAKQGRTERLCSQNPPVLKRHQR
T1 sequence (P00451 1668-2351 limits assumed): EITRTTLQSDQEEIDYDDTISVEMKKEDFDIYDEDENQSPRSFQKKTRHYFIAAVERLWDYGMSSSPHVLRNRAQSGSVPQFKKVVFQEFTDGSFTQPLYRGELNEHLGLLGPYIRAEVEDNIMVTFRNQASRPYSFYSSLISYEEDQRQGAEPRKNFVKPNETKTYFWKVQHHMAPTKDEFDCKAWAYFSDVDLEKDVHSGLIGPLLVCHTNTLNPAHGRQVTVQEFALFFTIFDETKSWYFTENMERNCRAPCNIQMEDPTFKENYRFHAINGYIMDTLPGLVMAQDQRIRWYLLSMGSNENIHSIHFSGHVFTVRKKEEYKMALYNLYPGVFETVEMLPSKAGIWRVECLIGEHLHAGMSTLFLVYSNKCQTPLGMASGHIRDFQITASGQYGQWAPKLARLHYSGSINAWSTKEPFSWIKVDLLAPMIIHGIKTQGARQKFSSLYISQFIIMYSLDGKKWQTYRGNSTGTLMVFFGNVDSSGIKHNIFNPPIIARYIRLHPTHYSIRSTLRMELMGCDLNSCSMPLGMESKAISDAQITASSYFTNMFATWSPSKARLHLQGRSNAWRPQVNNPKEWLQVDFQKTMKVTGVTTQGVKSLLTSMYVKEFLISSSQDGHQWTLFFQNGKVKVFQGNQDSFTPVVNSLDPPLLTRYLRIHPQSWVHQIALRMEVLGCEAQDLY
Test: Binding of 125I-labeled pd-FVIII to peptide-coated Toyopearl resin (micro-beads assay)
Settings: for % Binding pdFVIII: peptide immobilized on Toyopearl AF-Epoxy-650M resin, 125I-pd-FVIII, 2 hours room temperature, percent of maximal achievable binding (anti-FVIII Mab 8860-coated resin), mean ± SD of four determinations
Protocol: Peptides S1 to S84 were immobilized on the Toyopearl AF-Epoxy-650M resin (Tosoh Biosep) as described by Jungbauer et al. For immobilization, 2.5 mg of each peptide was dissolved in 0.25 mL of the immobilization buffer (0.2 M sodium bicarbonate, pH 10.3), and 0.036 g of the dry resin powder (corresponding to 0.125 mL of swollen resin) was added, followed by incubation of the mixture with gentle rotation for 48 hours. Upon incubation for 48 hours the resin was washed once with immobilization buffer, once with 1 M NaCl and then 3 times with binding buffer, and binding of ^125I-labeled pd-FVIII to the peptide-coated and control resin was tested. The coupling density of each peptide in each of the reported experiments was as mentioned in Table 1. The control 0.25 mL portion of the resin was similarly treated in parallel experiment in the absence of peptide and was subsequently used as a control (designated as Background) in ^125I-pd-FVIII binding experiments. ^125I-pd-FVIII Bound/Background ratios were calculated as the amount of ^125I-pd-FVIII, bound to an immobilized peptide, divided by that bound to uncoated control resin, prepared as described above. This ratio represents a Signal/Noise ratio for the micro-beads assay, since ^125I-pd-FVIII bound to peptide represents the signal value and ^125I-pd-FVIII bound to peptide-uncoated resin represents the background (noise) value.
Plasma-derived (pd-) human Factor VIII (FVIII) was purified from concentrate by immunoaffinity chromatography on an anti-FVIII monoclonal antibody column followed by subsequent concentration of pd-FVIII by ion-exchange chromatography using Resource Q HR5/5 column.
The resin with immobilized peptides was washed in the binding buffer (0.01 M Hepes, 0.1 M NaCl, 5 mM CaCl2, 0.01% Tween-80). Subsequently, the resin was diluted in the binding buffer as 1:7 slurry and aliquoted into Eppendorf tubes (40 μL per tube). ^125I-pd-FVIII (100000 cpm in 10 μL) was added to the tubes and the volume of the mixture was adjusted to 100 μL by adding 50 μL of the binding buffer containing 4% BSA to give a 2% final concentration of BSA. After 2 hours of incubation at room temperature on a rotator, the samples were washed 4 times in the binding. After each wash the tubes were centrifuged at 5000 rpm for 1 min in an Eppendorf microcentrifuge, supernatant was discarded, and the resin was re-suspended in the washing buffer, followed by centrifugation under the same conditions. After four washes the tubes with pellet without supernatant were counted for radioactivity. The resin without peptide was processed similarly to account for non-specific pd-FVIII binding to tubes and resin itself, and the radioactivity in this control tube was considered as a background value. Since ^125I-pd-FVIII contains the some fraction damaged during radiolabeling, binding was calculated as a percent of maximal achievable binding, determined in separate experiment with anti-FVIII Mab 8860-coated resin.
All the measurements were performed in duplicates. Each experiment was performed using two independently prepared immobilized peptide samples. The data presented in each table are the mean values of the four determinations: duplicate determination in the two assays performed with beads on which peptides were independently immobilized on the different days. The value of standard deviation of the above quadruplicate determinations (duplicate determinations in two independent experiments) were typically less than 10% of the measured values of ^125I-pd-FVIII binding to peptides.

[1] = Table 2, peptides with C-terminal cysteine linker immobilized on Toyopearl AF-Epoxy-650M resin
[2] = Table 3, hexapeptides with linker cysteine within the binding sequence

Substance	% Binding pdFVIII [%]	% Binding Factor VIII [1] [%]	% Binding Factor VIII [2] [%]
(N-Me)S-W-E-Y-C [S21]	48.4 ± 3.7		
(N-Me)Y-C-S-W-E-Y ([NMeY]CSWEY) [S69]	7.1 ± 0.7		
Ac-Y-C-S-W-E-Y (Ac-YCSWEY) [S9]	81.6 ± 2.8		82
Ac-Y-C-S-W-E-Y-NH2 (Ac-YCSWEY-NH2) [S2]	59.2 ± 4.6		
Ac-Y-C-T-W-D-Y (Ac-YCTWDY) [S14]	82.3 ± 1.4		
Ac-Y-C-T-W-D-Y-NH2 (Ac-YCTWDY-NH2) [S4]	58.5 ± 2.4		
Y-C-(N-Me)S-W-E-Y [S24]	14.4 ± 0.4		
Y-C-A-W-D-Y (YCAWDY) [S16]	72.0 ± 15.5		72
Y-C-S-W-(N-Me)E-Y [S25]	45.2 ± 2.5		
Y-C-S-W-D-Y (YCSWDY) [S11]	79.9 ± 4.0		80
Y-C-S-W-E-Y (YCSWEY) [S7]	64.1 ± 3.2		64
Y-C-S-W-E-Y-NH2 (YCSWEY-NH2) [S1]	41.8 ± 3.2		
Y-C-T-W-D-Y (YCTWDY) [S12]	74.2 ± 4.2		74
Y-C-T-W-D-Y-NH2 (YCTWDY-NH2) [S3]	42.3 ± 4.3		
Y-C-T-W-E-Y (YCTWEY) [S10]	80.3 ± 1.3		80
Y-C-V-W-D-Y (YCVWDY) [S18]	72.0 ± 1.2		72

Substance	% Binding pdFVIII [%]	% Binding Factor VIII [1] [%]	% Binding Factor VIII [2] [%]
Y-F-(N-Me)S-W-E-Y-C [S22]	47.6 ± 4.6		
Y-F-S-W-(N-Me)E-Y-C [S23]	53.1 ± 0.3		
Y-c-S-W-E-Y [S6]	55.8 ± 2.3		
Y-homoC-S-W-E-Y [S5]	59.7 ± 3.8		
YCS[1Nal]EY [S80]	35.3 ± 3.0		
YCS[Bpa]EY [S15]	49.4 ± 2.2		
YF[Abu]WEFC [S33]	53.4 ± 5.3	53	
YHSWE[Phg]C [S74]	34.9 ± 0.4		
YHS[Bpa]EYC [S37]	39.1 ± 1.2		
YHS[Bpa]E[Phg]C [S75]	28.1 ± 0.3		
YHS[Bta]EYC [S78]	6.0 ± 0.8		
YH[Abu]WDYC [S39]	46.4 ± 0.8		
y-d-w-a-c-y [S17]	75.1 ± 0.6		75
y-d-w-t-c-y [S13]	53.8 ± 0.5		
y-d-w-v-c-y [S19]	73.4 ± 5.6		73
y-e-w-s-c-y [S8]	69.4 ± 6.6		69

Results, then the substance that gave them:

% Binding pdFVIII [%]	% Binding Factor VIII [1] [%]	% Binding Factor VIII [2] [%]	Substance
48.9 ± 3.0	49		Ac-H-S-W-E-Y-C (Ac-HSWEYC) [S31]
42.6 ± 1.3	43		Ac-S-W-E-Y-C [S30]
62.2 ± 4.4	62		Ac-Y-H-S-W-E-Y-C (Ac-YHSWEYC) [S32]
	50		EYHSWEYC [reference compound]
54.4 ± 4.9	54		H-S-W-E-Y-C (HSWEYC) [S29]
38.6 ± 0.4			S-(1-Nal)-E-Bip(4,4′)-C [S62]
41.4 ± 1.2			S-(2-Nal)-E-Bip(4,4′)-C [S63]
36.2 ± 1.5			S-Bip(4,4′)-E-Bpa-C [S64]
35.4 ± 6.6			S-Bpa-E-(1-Nal)-C [S57]
42.0 ± 5.3			S-Bpa-E-(2-Nal)-C [S58]
30.9 ± 2.1			S-Bpa-E-Bip(4,4′)-C [S59]
1.1 ± 3.3			S-Bpa-E-Bpa-C [S61]
33.9 ± 3.2			S-Bpa-E-Phe(4-Cl)-C [S60]
41.3 ± 1.4			S-Bpa-E-Phg-C [S72]
30.6 ± 0.4			S-Bpa-E-Y-C [S71]
39.2 ± 2.4			S-Bta-E-Bpa-C [S65]
47.7 ± 0.0			S-Phe(3,4-Cl)-E-Bpa-C [S67]

% Binding pdFVIII [%]	% Binding Factor VIII [1] [%]	% Binding Factor VIII [2] [%]	Substance
40.0 ± 2.5			S-Phe(4-Cl)-E--Bpa-C [S66]
40.0 ± 2.8			S-W-E-Bpa-C [S73]
72.1 ± 7.2			Y-C-A-W-E-Y (YCAWEY) [S81]
72.2 ± 1.7			Y-C-S-(N-Me)W-E-Y [S70]
48.8 ± 3.1			Y-C-S-W-E-(N-Me)Y [S26]
94.1 ± 4.70			Y-C-V-W-E-Y (YCVWEY) [S82]
34.4 ± 3.2			Y-H-S-Phe(3,4-Cl)-E-Y-C [S77]
26.6 ± 1.3			Y-H-V-W-E-Y-C (YHVWEYC) [S76]
47.7 ± 0.45			Y-W-E-Y-C [S79]
54.3 ± 2.1			Y-Y-S-W-E-Y-C (YYSWEYC) [S68]
57.5 ± 4.6			Y-f-(N-Me)S-W-E-Y-C [S27]
65.1 ± 2.5			Y-f-S-W-(N-Me)E-Y-C [S28]
53.6 ± 2.7	54		Y-f-S-W-E-Y-C [S34]
37.1 ± 1.0			c-y-e-w-s [S35]
53.6 ± 2.5			y-e-w-a-c-y [S83]
77.0 ± 4.2			y-e-w-v-c-y [S84]
